Results from patent US10588317B2, “Isoxazoline-substituted benzamides and analogues as insecticides” (priority 2015, dated 2020).

Tests used:
Type in all cases: in vivo
[1] = tested on: Diabrotica balteata; test: Diabrotica balteata (corn root worm), sprayed maize sprouts; conditions: 96 h, application rate 200 ppm, L2 larvae, 4 days after infestation, read-out: effect in at least one of the two categories (mortality or growth inhibition)
Outline: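 Read-out at 4 days post-infestation: mortality and growth inhibition relative to untreated samples. Test solutions (200 ppm, from DMSO stocks) were sprayed onto agar-held maize sprouts, which after drying received 6–10 L2 larvae per well.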

[2] = tested on: Euschistus heros; test: Euschistus heros (neotropical brown stink bug), sprayed soybean leaves; conditions: 120 h, application rate 200 ppm, N2 nymphs, 5 days after infestation, read-out: effect in at least one of the two categories (mortality or growth inhibition)
Outline: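 Scored 5 days post-infestation versus untreated controls, for both mortality and growth inhibition: N2 nymphs placed on agar-mounted soybean leaves previously sprayed at 200 ppm with aqueous test solutions from DMSO stocks and left to dry.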

[3] = tested on: Plutella xylostella; test: Plutella xylostella (diamond back moth), artificial diet; conditions: 120 h, application rate 200 ppm, L2 larvae, 5 days after infestation, read-out: effect in at least one of the two categories (mortality or growth inhibition)
Outline: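 L2 larvae (10-15 per well) fed on compound-treated, dried artificial diet; test solutions diluted in water from 10'000 ppm DMSO stocks. Readout 5 days post-infestation as mortality or growth inhibition versus untreated diet, with at least 80% effect at 200 ppm as threshold.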

[4] = tested on: Spodoptera littoralis; test: Spodoptera littoralis (Egyptian cotton leaf worm), sprayed cotton leaf discs; conditions: foliar, 72 h, application rate 200 ppm, L1 larvae, 3 days after infestation, read-out: control (mortality, anti-feeding effect, growth inhibition)
Outline: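 Five first-instar larvae placed on dried cotton leaf discs (on agar) previously sprayed with aqueous dilutions of 10'000 ppm DMSO stocks. Scored at 3 days against untreated discs for mortality, feeding inhibition and growth inhibition; any category above untreated counts as control.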

[5] = tested on: Spodoptera littoralis; test: Spodoptera littoralis (Egyptian cotton leaf worm), uptake by lettuce roots from agar; conditions: 144 h, read-out: effect in at least one of the three categories (mortality, anti-feeding, or growth inhibition); for percent effect (mortality, anti-feeding or growth inhibition) at 12.5 ppm: test rate 12.5 ppm, eggs, 6 days after infestation
Excerpt: Test compounds were applied by pipette from 10'000 ppm DMSO stock solutions into 24-well plates and mixed with agar. Lettuce seeds were placed onto the agar and the multi well plate was closed by another plate which contained also agar. After 7 days the compound was absorbed by the roots and the lettuce grew into the lid plate. The lettuce leaves were then cut off into the lid plate. Spodoptera eggs were pipetted through a plastic stencil onto a humid gel blotting paper and the lid plate was closed with it. The samples were assessed for mortality, anti-feedant effect and growth inhibition in comparison to untreated samples 6 days after infestation.
The following compounds gave an effect of at least 80% in at least one of the three categories (mortality, anti-feeding, or growth inhibition) at a test rate of 12.5 ppm: […]

[6] = tested on: Tetranychus urticae; test: Tetranychus urticae (two-spotted spider mite): feeding/contact activity; conditions: 192 h, application rate 200 ppm, mixed population (mobile stages), 8 days after infestation, read-out: mortality
Method: Bean leaf discs on agar in 24-well microtiter plates were sprayed with aqueous test solutions prepared from 10'000 ppm DMSO stock solutions. After drying the leaf discs were infested with a mite population of mixed ages. The samples were assessed for mortality on mixed population (mobile stages) 8 days after infestation.

[7] = tested on: Thrips tabaci; test: Thrips tabaci (onion thrips): feeding/contact activity; conditions: 144 h, application rate 200 ppm, Thrips population of mixed ages, 6 days after infestation, read-out: mortality
Method: Sunflower leaf discs were placed on agar in 24-well microtiter plates and sprayed with aqueous test solutions prepared from 10'000 ppm DMSO stock solutions. After drying the leaf discs were infested with a Thrips population of mixed ages. The samples were assessed for mortality 6 days after infestation.

[8] = tested on: Myzus persicae; test: Myzus persicae (green peach aphid): feeding/contact activity; conditions: 144 h, application rate 200 ppm, aphid population of mixed ages, 6 days after infestation, read-out: mortality
Method: Sunflower leaf discs were placed onto agar in a 24-well microtiter plate and sprayed with aqueous test solutions prepared from 10'000 ppm DMSO stock solutions. After drying, the leaf discs were infested with an aphid population of mixed ages. The samples were assessed for mortality 6 days after infestation.

Cc1cc(C2=NO[C@@](c3cc(Cl)c(F)c(Cl)c3)(C(F)(F)F)C2)ccc1C(=O)NC1CON(S(=O)(=O)CC(F)(F)F)C1 (some centres unmarked) [Compound A8]
≥ 80%: percent effect (mortality or growth inhibition) at 200 ppm [1] | percent effect (mortality or growth inhibition) at 200 ppm [2] | percent effect (mortality or growth inhibition) at 200 ppm [3] | mortality at 200 ppm [4] | percent control (mortality, anti-feedant effect or growth inhibition) at 12.5 ppm [5] | mortality at 200 ppm [6] | mortality at 200 ppm [7]

Cc1cc(C2=NOC(c3cc(Cl)cc(Cl)c3)(C(F)(F)F)C2)ncc1C(=O)NC1CON(S(C)(=O)=O)C1 (centres unmarked) [Compound A236]
≥ 80%: percent effect (mortality or growth inhibition) at 200 ppm [1] | percent effect (mortality or growth inhibition) at 200 ppm [2] | percent effect (mortality or growth inhibition) at 200 ppm [3] | mortality at 200 ppm [4] | percent control (mortality, anti-feedant effect or growth inhibition) at 12.5 ppm [5] | mortality at 200 ppm [6] | mortality at 200 ppm [7]

CN(C)S(=O)(=O)N1CC(NC(=O)c2ccc(C3=NO[C@@](c4cc(Cl)c(Cl)c(Cl)c4)(C(F)(F)F)C3)cc2Cl)CO1 (stereo partly drawn) [Compound A32, 2-chloro-N-[2-(dimethylsulfamoyl)isoxazolidin-4-yl]-4-[(5S)-5-(3,4,5-trichlorophenyl)-5-(trifluoromethyl)-4H-isoxazol-3-yl]benzamide]
≥ 80%: percent effect (mortality or growth inhibition) at 200 ppm [1] | mortality at 200 ppm [8] | percent effect (mortality or growth inhibition) at 200 ppm [3] | mortality at 200 ppm [4] | percent control (mortality, anti-feedant effect or growth inhibition) at 12.5 ppm [5] | mortality at 200 ppm [6] | mortality at 200 ppm [7]

Cc1cc(C2=NO[C@@](c3cc(Cl)cc(C(F)(F)F)c3)(C(F)(F)F)C2)ccc1C(=O)NC1CON(S(=O)(=O)N(C)C)C1 (some centres unmarked) [Compound A22]
≥ 80%: percent effect (mortality or growth inhibition) at 200 ppm [1] | mortality at 200 ppm [8] | percent effect (mortality or growth inhibition) at 200 ppm [3] | mortality at 200 ppm [4] | percent control (mortality, anti-feedant effect or growth inhibition) at 12.5 ppm [5] | mortality at 200 ppm [6] | mortality at 200 ppm [7]

CCS(=O)(=O)N1CC(NC(=O)c2ccc(C3=NO[C@@](c4cc(Cl)c(Cl)c(Cl)c4)(C(F)(F)F)C3)cc2Cl)CO1 (stereo partly drawn) [Compound A28, 2-chloro-N-(2-ethylsulfonylisoxazolidin-4-yl)-4-[(5S)-5-(3,4,5-trichlorophenyl)-5-(trifluoromethyl)-4H-isoxazol-3-yl]benzamide]
≥ 80%: percent effect (mortality or growth inhibition) at 200 ppm [1] | mortality at 200 ppm [8] | percent effect (mortality or growth inhibition) at 200 ppm [3] | mortality at 200 ppm [4] | percent control (mortality, anti-feedant effect or growth inhibition) at 12.5 ppm [5] | mortality at 200 ppm [6] | mortality at 200 ppm [7]

CS(=O)(=O)N1CC(NC(=O)c2ccc(C3=NOC(c4cc(Cl)cc(Cl)c4)(C(F)(F)F)C3)cc2Br)CO1 (centres unmarked) [Compound A48]
≥ 80%: percent effect (mortality or growth inhibition) at 200 ppm [1] | percent effect (mortality or growth inhibition) at 200 ppm [2] | percent effect (mortality or growth inhibition) at 200 ppm [3] | mortality at 200 ppm [4] | percent control (mortality, anti-feedant effect or growth inhibition) at 12.5 ppm [5] | mortality at 200 ppm [6] | mortality at 200 ppm [7]

Cc1cc(C2=NO[C@@](c3cc(Br)cc(C(F)(F)F)c3)(C(F)(F)F)C2)ccc1C(=O)NC1CON(S(=O)(=O)N(C)C)C1 (some centres unmarked) [Compound A23]
≥ 80%: percent effect (mortality or growth inhibition) at 200 ppm [1] | mortality at 200 ppm [8] | percent effect (mortality or growth inhibition) at 200 ppm [3] | mortality at 200 ppm [4] | percent effect (mortality, anti-feeding or growth inhibition) at 12.5 ppm [5] | mortality at 200 ppm [6] | mortality at 200 ppm [7]

CN(C)S(=O)(=O)N1CC(NC(=O)c2ccc(C3=NO[C@@](c4cc(Cl)c(F)c(Cl)c4)(C(F)(F)F)C3)cc2Cl)CO1 (some centres unmarked) [Compound A21]
≥ 80%: percent effect (mortality or growth inhibition) at 200 ppm [1] | mortality at 200 ppm [8] | percent effect (mortality or growth inhibition) at 200 ppm [3] | mortality at 200 ppm [4] | percent control (mortality, anti-feedant effect or growth inhibition) at 12.5 ppm [5] | mortality at 200 ppm [6] | mortality at 200 ppm [7]

Cc1cc(C2=NOC(c3cc(C(F)(F)F)c(Cl)c(C(F)(F)F)c3)(C(F)(F)F)C2)ccc1C(=O)NC1CON(S(C)(=O)=O)C1 (centres unmarked) [Compound A57]
≥ 80%: percent effect (mortality or growth inhibition) at 200 ppm [1] | percent effect (mortality or growth inhibition) at 200 ppm [2] | percent effect (mortality or growth inhibition) at 200 ppm [3] | mortality at 200 ppm [4] | percent control (mortality, anti-feedant effect or growth inhibition) at 12.5 ppm [5] | mortality at 200 ppm [6] | mortality at 200 ppm [7]

Cc1cc(C2=NO[C@@](c3cc(Cl)c(Cl)c(Cl)c3)(C(F)(F)F)C2)ccc1C(=O)NC1CON(S(=O)(=O)N(C)C)C1 (stereo partly drawn) [Compound A31, N-[2-(dimethylsulfamoyl)isoxazolidin-4-yl]-2-methyl-4-[(5S)-5-(3,4,5-trichlorophenyl)-5-(trifluoromethyl)-4H-isoxazol-3-yl]benzamide]
≥ 80%: percent effect (mortality or growth inhibition) at 200 ppm [1] | mortality at 200 ppm [8] | percent effect (mortality or growth inhibition) at 200 ppm [3] | mortality at 200 ppm [4] | percent control (mortality, anti-feedant effect or growth inhibition) at 12.5 ppm [5] | mortality at 200 ppm [6] | mortality at 200 ppm [7]

CCS(=O)(=O)N1C[C@@H](NC(=O)c2ccc(C3=NO[C@@](c4cccc(C(F)(F)F)c4)(C(F)(F)F)C3)cc2C)CO1 [Compound A160]
≥ 80%: percent effect (mortality or growth inhibition) at 200 ppm [1] | percent effect (mortality or growth inhibition) at 200 ppm [2] | percent effect (mortality or growth inhibition) at 200 ppm [3] | mortality at 200 ppm [4] | percent effect (mortality, anti-feeding or growth inhibition) at 12.5 ppm [5] | mortality at 200 ppm [6] | mortality at 200 ppm [7]

CS(=O)(=O)N1CC(NC(=O)c2ccc(C3=NOC(c4cc(Cl)cc(Cl)c4)(C(F)(F)F)C3)cc2C2CC2)CO1 (centres unmarked) [Compound A52]
≥ 80%: percent effect (mortality or growth inhibition) at 200 ppm [1] | percent effect (mortality or growth inhibition) at 200 ppm [2] | percent effect (mortality or growth inhibition) at 200 ppm [3] | mortality at 200 ppm [4] | percent control (mortality, anti-feedant effect or growth inhibition) at 12.5 ppm [5] | mortality at 200 ppm [6] | mortality at 200 ppm [7]

Cc1cc(C2=NO[C@@](c3cc(Cl)c(OC(F)F)c(Cl)c3)(C(F)(F)F)C2)ccc1C(=O)N[C@@H]1CON(S(C)(=O)=O)C1 [Compound A204, 4-[(5S)-5-[3,5-dichloro-4-(difluoromethoxy)phenyl]-5-(trifluoromethyl)-4H-1,2-oxazol-3-yl]-2-methyl-N-[(4S)-2-methylsulfonyl-1,2-oxazolidin-4-yl]benzamide]
≥ 80%: percent effect (mortality or growth inhibition) at 200 ppm [1] | percent effect (mortality or growth inhibition) at 200 ppm [2] | mortality at 200 ppm [8] | percent effect (mortality or growth inhibition) at 200 ppm [3] | mortality at 200 ppm [4] | mortality at 200 ppm [6] | mortality at 200 ppm [7]

Cc1cc(C2=NO[C@@](c3cc(Cl)c(F)c(Cl)c3)(C(F)(F)F)C2)ccc1C(=O)NC1CON(S(=O)(=O)N2CCCC2)C1 (stereo partly drawn) [Compound A99, 4-[(5S)-5-(3,5-dichloro-4-fluoro-phenyl)-5-(trifluoromethyl)-4H-isoxazol-3-yl]-2-methyl-N-(2-pyrrolidin-1-ylsulfonylisoxazolidin-4-yl)benzamide]
≥ 80%: percent effect (mortality or growth inhibition) at 200 ppm [1] | percent effect (mortality or growth inhibition) at 200 ppm [2] | mortality at 200 ppm [8] | percent effect (mortality or growth inhibition) at 200 ppm [3] | mortality at 200 ppm [4] | mortality at 200 ppm [6] | mortality at 200 ppm [7]
